Reference: patent US10501479B2, “Benzenesulfonyl-asymmetric ureas and medical uses thereof” (HELSINN HEALTHCARE SA, priority 2016, dated 2019)
Where “and” joins values, the source holds several entries; their conditions need not be identical. Equal values may be shown once. Read-outs that look alike come from different tables or passages of the source.

How the values were obtained:
[1] = Metabolic stability in mouse liver microsomes; assay type: in vitro ADME
Procedure, shortened: (§1)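 Loss of parent over time in microsomal incubations at 37 °C with NADPH regeneration, sampled up to 90 min and read by LC-MS/MS.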

[2] = target: T1, GHSR-1a (HEK293/GHSR1a cell line) (Homo sapiens, UniProt Q92847); assay: Ghrelin antagonist potency (IC50) with calcium FLIPR assay, ghrelin 10 nM; assay type: cell-based; conditions: ghrelin antagonist potency
T1 construct: expressed in transfected cells; host or cells: HEK293/GHSR1a cell line
T1 sequence (Q92847 whole entry): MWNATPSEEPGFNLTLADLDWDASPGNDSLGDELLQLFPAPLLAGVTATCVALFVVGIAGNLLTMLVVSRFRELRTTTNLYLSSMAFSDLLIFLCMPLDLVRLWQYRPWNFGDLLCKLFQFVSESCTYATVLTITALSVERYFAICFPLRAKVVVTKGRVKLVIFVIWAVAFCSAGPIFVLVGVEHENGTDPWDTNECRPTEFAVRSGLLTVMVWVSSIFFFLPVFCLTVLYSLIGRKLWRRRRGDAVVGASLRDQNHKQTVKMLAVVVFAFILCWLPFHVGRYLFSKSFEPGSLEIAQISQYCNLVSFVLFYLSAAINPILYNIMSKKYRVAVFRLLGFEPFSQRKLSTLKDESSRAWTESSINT
Procedure, shortened: (§2)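 In this assay, compound alone assesses agonism, while compound co-added with ghrelin at 10 nM assesses antagonism. In both modes the calcium-dye signal is tracked for 2 min from t=20 sec.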

[3] = target: T2, recombinant human ghrelin receptor (HEK293/GRLN) (Homo sapiens, UniProt Q92847); assay: Ghrelin inverse agonist potency (EC50) with IP-1 (IP-One HTRF) assay; assay type: cell-based; conditions: IP-1 assay
T2 construct: expressed in transfected cells
T2 sequence (Q92847 whole entry): as above
Procedure, shortened: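 IP-1 accumulation was measured by HTRF (IP1-d2/Tb-cryptate, 620/665 nm read after 1 hour at room temperature) following 1 hour of compound treatment at 37° C. Cells were HEK293 stably expressing human ghrelin receptor, plated a day earlier on Matrigel. Inverse agonist potency was reported as EC50.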

[4] = Animal PK study in mouse via i.v., p.o. and s.c. administration; assay type: in vivo; conditions: for PK CLiv / PK Vdiv / PK t1/2iv: i.v.; for PK CLpo / PK Vdpo / PK t1/2po: p.o.
Procedure, shortened: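 Plasma drug levels were measured by LC-MS/MS after acetonitrile precipitation, with blood drawn up to 24 h post-dose (from 0.083 h i.v./s.c., 0.25 h oral) in mice or rats. Animals received one dose by gavage in DMSO/methylcellulose, or by tail-vein or subcutaneous injection in DMSO/HP-β-cyclodextrin.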

[5] = Plasma protein binding (PPB), rat; assay type: in vitro ADME; conditions: read-out: PPB (R) (converted)
[6] = Plasma protein binding (PPB), human; assay type: in vitro ADME; conditions: read-out: PPB (H)
[7] = Plasma protein binding (PPB), mouse; assay type: in vitro ADME
[8] = Plasma protein binding (PPB), dog; assay type: in vitro ADME; conditions: read-out: PPB (D) (converted)
[9] = Metabolic stability in human liver microsomes; assay type: in vitro ADME
Procedure, shortened: as §1

[10] = Animal PK study in dog (i.v., p.o.); assay type: in vivo; conditions: for PK CLiv / PK Vdiv / PK t1/2iv: i.v.; for PK CLpo / PK Vdpo / PK t1/2po: p.o.
[11] = Animal PK study in rat via i.v., p.o. and s.c. administration; assay type: in vivo; conditions: rat
hERG = hERG (Homo sapiens, UniProt Q12809); assay: hERG inhibition
Chain of hERG (Q12809 whole entry): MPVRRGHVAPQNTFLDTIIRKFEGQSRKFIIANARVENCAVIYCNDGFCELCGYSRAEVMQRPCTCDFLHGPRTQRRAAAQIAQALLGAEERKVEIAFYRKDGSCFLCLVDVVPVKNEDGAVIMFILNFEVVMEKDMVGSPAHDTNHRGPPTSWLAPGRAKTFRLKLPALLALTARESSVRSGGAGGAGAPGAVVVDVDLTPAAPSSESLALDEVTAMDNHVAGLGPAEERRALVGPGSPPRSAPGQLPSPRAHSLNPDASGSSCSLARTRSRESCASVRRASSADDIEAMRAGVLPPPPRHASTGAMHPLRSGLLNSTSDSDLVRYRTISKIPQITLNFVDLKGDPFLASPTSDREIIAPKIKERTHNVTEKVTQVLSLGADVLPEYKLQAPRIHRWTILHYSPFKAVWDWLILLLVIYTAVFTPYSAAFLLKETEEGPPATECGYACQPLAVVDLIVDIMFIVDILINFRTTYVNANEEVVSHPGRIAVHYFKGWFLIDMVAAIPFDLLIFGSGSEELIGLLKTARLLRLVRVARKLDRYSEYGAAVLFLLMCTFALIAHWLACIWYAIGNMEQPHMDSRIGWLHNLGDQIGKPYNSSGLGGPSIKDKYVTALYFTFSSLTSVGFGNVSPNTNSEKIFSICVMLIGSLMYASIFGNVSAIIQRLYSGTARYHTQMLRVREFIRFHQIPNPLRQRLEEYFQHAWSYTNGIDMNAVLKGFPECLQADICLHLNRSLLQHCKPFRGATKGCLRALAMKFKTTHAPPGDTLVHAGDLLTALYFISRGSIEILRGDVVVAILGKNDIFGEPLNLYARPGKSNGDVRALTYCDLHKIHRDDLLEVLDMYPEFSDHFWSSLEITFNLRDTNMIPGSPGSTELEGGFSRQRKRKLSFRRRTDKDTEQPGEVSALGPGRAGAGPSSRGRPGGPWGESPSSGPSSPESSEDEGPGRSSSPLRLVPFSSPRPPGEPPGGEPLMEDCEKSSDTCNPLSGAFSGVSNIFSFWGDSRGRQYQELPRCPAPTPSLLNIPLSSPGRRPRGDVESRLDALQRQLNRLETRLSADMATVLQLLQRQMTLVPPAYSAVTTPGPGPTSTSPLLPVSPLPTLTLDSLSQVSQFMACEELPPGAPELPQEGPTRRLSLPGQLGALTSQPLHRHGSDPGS

[12] = target: T1, GHSR-1a (HEK293/GHSR1a cell line); assay: Ghrelin agonist potency (EC50) with calcium FLIPR assay; assay type: cell-based; conditions: ghrelin agonist potency, read-out: Activity EC50/EMax
Procedure, shortened: as §2

[13] = Plasma protein binding (PPB), rat (R); assay type: in vitro ADME
[14] = Plasma protein binding (PPB), human (H); assay type: in vitro ADME
[15] = Metabolic stability in rat liver microsomes; assay type: in vitro ADME
Procedure, shortened: as §1

[16] = Metabolic stability in dog liver microsomes; assay type: in vitro ADME
Procedure, shortened: as §1

[17] = inverse agonist potency, read-out: EC50 (Activity)
[18] = ghrelin inverse agonist potency, read-out: Activity EC50

Row | SMILES | Metabolic Stability Study M = mouse [1] | IC50 ([2]; read-out: IC50 (Activity)) [nM] | EC50 [3, 17] | PK F [4] | PK CLiv [4] [mL/min/kg] | PK Vdiv [4] [L/kg] | PK t1/2iv [4] | PK CLpo [4] | PK Vdpo [4] | PK t1/2po [4] | fraction unbound [5] | fraction unbound [6] | fraction unbound [7] | fraction unbound [8] | Metabolic Stability Study H = human [9] | hERG inh (hERG) [µM] | EC50 [12] [nM] | fraction unbound [13] | IC50 ([2]; read-out: Activity IC50) [nM] | EC50 [3, 18] [nM] | also measured
1 | C[C@H](NC(=O)Nc1ccc(S(=O)(=O)Cc2ccc(CO)cc2)cc1)c1cccc(Cl)c1Cl [H1060, (S)-1-(1-(2,3-dichlorophenyl)ethyl)-3-(4-((4-(hydroxymethyl)benzyl)sulfonyl)phenyl)urea] | 108.7 µL/min/mg | 280 | 40.8 nM | 18.8% | 68.8 | 8.25 | 1.37 h | 368 mL/min/kg | 22.4 L/kg | 0.7 h | 0.0018 | 0.0013 | 0.0019 | 0.0012 | 40 µL/min/mg |  |  |  |  |  | 
2 | CC(NC(=O)Nc1ccc(S(=O)(=O)Cc2ccc3c(c2)CNC3)cc1)c1ccccc1.Cl (stereo not shown) [H1148, 1-(4-((isoindolin-5-ylmethyl)sulfonyl)phenyl)-3-(1-phenylethyl)urea] | 21.1 µL/min/mg | 10 | 2.9 nM and 3.13 nM |  |  |  | 1.37 h and 2.13 h | 1610 mL/min/kg and 2742 mL/min/kg |  |  | 0.055 | 0.088 | 0.077 |  | 22.2 µL/min/mg | 12.52 |  |  |  |  | PK F [10]: 15.7 (D) %; PK CLiv [10]: 12 mL/min/kg; PK Vdiv [10]: 2.34 (D) L/Kg; PK t1/2iv [10]: 2.32 (D) h; PK CLpo [10]: 80.3 mL/min/kg; PK Vdpo [10]: (M); 14.74 (D) L/Kg; PK t1/2po [10]: 2.34 (D) h; PK Vdiv ([11]; i.v.): 104.5 (R); L/Kg; PK t1/2iv ([11]; i.v.): 0.51 (R); h
3 | CC(c1ccc2c(c1)CCNC2)S(=O)(=O)c1ccc(NC(=O)N[C@@H](C)c2cccc(Cl)c2Cl)cc1.Cl (stereo partly drawn) [H1080, 1-((S)-1-(2,3-dichlorophenyl)ethyl)-3-(4-((1-(1,2,3,4-tetrahydroisoquinolin-6-yl)ethyl)sulfonyl)phenyl)urea] | H < 10 M < 10 R = not reported D = not reported μL/min/mg | 22.6 | 11.1 nM |  |  |  |  |  |  |  |  |  |  |  | H < 10 M < 10 R = not reported D = not reported μL/min/mg | 3.57 |  |  |  |  | 
4 | COc1cc(S(=O)(=O)Cc2ccc3c(c2)CCNC3)ccc1NC(=O)N(O)C(C)c1cccc(Cl)c1Cl (stereo not shown) [H1497, 1-(1-(2,3-dichlorophenyl)ethyl)-1-hydroxy-3-(2-methoxy-4-(((1,2,3,4-tetrahydroisoquinolin-6-yl)methyl)sulfonyl)phenyl)urea] |  |  |  |  |  |  |  |  |  |  |  |  |  |  | H = <10 μL/min/mg |  | > 30000 | 0.002 | 2.81 | 3.3 | fraction unbound [14]: 0.0016
5 | CC(NC(=O)Nc1ccc(S(=O)(=O)Cc2ccc3c(c2)CN(C)C3)cc1)c1ccccc1 (stereo not shown) [H1194, 1-(4-(((2-methylisoindolin-5-yl)methyl)sulfonyl)phenyl)-3-(1-phenylethyl)urea] | 64.2 µL/min/mg | 38.3 | 16.8 nM | 15.56 (M); % | 60.2 | 6.33 | 1.21 (M); h | 380 mL/min/kg | 53.3 (M); L/Kg | 1.62 (M); h |  | 0.076 | 0.06 |  | 111.6 µL/min/mg | 22.6 |  |  |  |  | PK F [10]: 54.07 (D) %; PK CLiv [10]: 16.7 mL/min/kg; PK Vdiv [10]: 2.11 (D) L/Kg; PK t1/2iv [10]: 1.44 (D) h; PK CLpo [10]: 30.7 mL/min/kg; PK Vdpo [10]: 4.05 (D) L/Kg; PK t1/2po [10]: 1.5 (D) h; Metabolic Stability Study R = rat [15]: 56 µL/min/mg; PK F [11]: 11.9 (R); %; PK CLiv ([11]; i.v.): 94.7 mL/min/kg; PK Vdiv ([11]; i.v.): 8.86 (R); L/Kg; PK t1/2iv ([11]; i.v.): 1.08 (R); h; PK CLpo ([11]; p.o.): 848 mL/min/kg; PK Vdpo ([11]; p.o.): 232.2 (R); L/Kg; PK t1/2po ([11]; p.o.): 4.54 (R); h; Metabolic Stability Study D = dog [16]: 14 µL/min/mg
6 | CC(NC(=O)Nc1ccc(S(=O)(=O)Cc2ccc3c(c2)CNC3)cc1C(=O)O)c1ccccc1.Cl (stereo not shown) [H1486, 5-((isoindolin-5-ylmethyl)sulfonyl)-2-(3-(1-phenylethyl)ureido)benzoic acid] | H = <10 M = <10 μL/min/mg |  |  |  |  |  |  |  |  |  |  |  |  |  | H = <10 M = <10 μL/min/mg |  | > 30000 | 0.0265 | 9.21 | 4.9 | fraction unbound [14]: 0.0519
7 | C[C@H](NC(=O)Nc1ccc(S(=O)(=O)Cc2ccc3c(c2)CCN(C)C3)cc1)c1cccc(Cl)c1Cl [H1071, (S)-1-(1-(2,3-dichlorophenyl)ethyl)-3-(4-(((2-methyl-1,2,3,4-tetrahydroisoquinolin-6-yl)methyl)sulfonyl)phenyl)urea] | 80.7 µL/min/mg and 152.5 µL/min/mg | 5 | 1.7 nM | 19.9% | 28.5 | 2.83 | 1.15 h | 138 mL/min/kg | 21.1 L/kg | 1.77 h | 0.0087 | 0.0089 | 0.0098 | 0.0082 |  |  |  |  |  |  | Metabolic Stability Study R = rat [15]: 274 µL/min/mg and 188 µL/min/mg; Metabolic Stability Study D = dog [16]: 172.6 µL/min/mg and 160.7 µL/min/mg
8 | C[C@H](NC(=O)Nc1ccc(S(=O)(=O)Nc2ccc(CO)cc2)cc1)c1cccc(Cl)c1Cl [H1062, (S)-4-(3-(1-(2,3-dichlorophenyl)ethyl)ureido)-N-(4-(hydroxymethyl)phenyl) benzenesulfonamide] | 67.2 µL/min/mg | 222 | 58 nM |  |  |  |  |  |  |  | 0.0012 | 0.0012 | 0.0019 | 0.0017 | 32.4 µL/min/mg |  |  |  |  |  | 
9 | COc1cc(S(=O)(=O)Cc2ccc3c(c2)CCNC3)ccc1NC(=O)N(O)C(C)c1ccccc1 (stereo not shown) [H1498, 1-hydroxy-3-(2-methoxy-4-(((1,2,3,4-tetrahydroisoquinolin-6-yl)methyl)sulfonyl)phenyl)-1-(1-phenylethyl)urea] |  |  |  |  |  |  |  |  |  |  |  |  |  |  | H = 9.9 μL/min/mg |  | > 30000 | 0.0294 | 24.8 | 7.2 | fraction unbound [14]: 0.0123
